Laboratory results published in patent US20220409649A1, “a-GLUCOSIDASE INHIBITOR, INVERTASE INHIBITOR, AND SUGAR ABSORPTION INHIBITOR” (Kinki University, priority 2019, published 2022).

Columns and labels:
[1] = tested on: maltase (maltose as substrate); experiment: Screening of enzyme inhibition, rat intestinal acetone powder crude enzyme, maltose as substrate; assay type: biochemical; details: 10 μL inhibitor solution (3.4 mg/mL diluted 100 times), five hours
Method: (§1) As a crude enzyme mixture, 50 mg of rat intestinal acetone powder was added to 450 μL of 50 mmol/L phosphate buffer solution (pH 6.0), the mixture was stirred for 30 seconds, and then homogenized. Thereafter, the mixture was centrifuged (10000 rpm, 4° C., 20 minutes), and the supernatant was used as a purified enzyme (50 mg/450 μL). Sucrose and two types of glucose disaccharides (maltose and isomaltose) having different bonds were used as substrates. 3.4 mg of each of the two types of substrates was dissolved in 100 μL of phosphate buffer solution, and each solution was used as a substrate solution. A solution obtained by dissolving 3.4 mg of the compound (I) as a competitive inhibitor in 1 mL of phosphate buffer solution and diluting 100 times, was used as an inhibitor solution. 100 μL of the substrate solution and 10 μL of the inhibitor solution were mixed, and pre-incubation was performed for five minutes. Then, 90 μL of an enzyme solution was added to start incubation. Five hours later, 10 μL of the reaction solution was heated in a water bath for 10 minutes to stop the reaction, followed by the PMP derivatization, and then the capillary electrophoresis. An enzyme reaction solution under the same conditions without the inhibitor was used as a blank. The inhibition rate was calculated for each substrate using the same equation as that in the invertase inhibition analysis.

[2] = tested on: Maltase α-(1-4)glucosidase; experiment: Maltase inhibition analysis by compound (I) (Table 2); assay type: biochemical
[3] = Oral glucose tolerance testing using sucrose, normal rats; assay type: in vivo, normal Wistar type rats; details: oral co-administration with sucrose 1.5 g/kg, FIG. 7
Method: (§2) Glucose tolerance testing of normal Wistar type rats and OLETF rats with diabetes was performed using the compound (I). After fasted for 14 hours, glucose was loaded, and blood taken from tail veins of the rats was subjected to various tests.
(§3) An aqueous solution containing […] of sucrose (hereinafter, also referred to as “A Liquid”) and an aqueous solution containing […] of sucrose and 0.085 mg/ml of the compound (I) (hereinafter, also referred to as “B Liquid”) were prepared. Six normal 7-week-old rats (male) were divided into two groups. In one group, the A liquid was orally administered such that an amount of sucrose was 1.5 g/kg based on the rat body weight. In the other group, the B liquid was orally administered such that the amount of sucrose was 1.5 g/kg based on the rat body weight. Blood was taken from the tail veins of the rats before the administration and in 30 minutes, 60 minutes, 90 minutes, and 120 minutes after the administration, and then plasma was obtained by centrifugation. For the obtained plasma, glucose and insulin were quantified.

[4] = Oral glucose tolerance testing using sucrose, OLETF rats with diabetes; assay type: in vivo; details: oral co-administration with sucrose, FIG. 8
Method: as §2, §3

[5] = biological target: T1, isomaltase (isomaltose as substrate) (Rattus norvegicus, UniProt P23739); experiment: Screening of enzyme inhibition, rat intestinal acetone powder crude enzyme, isomaltose as substrate; assay type: biochemical; details: 10 μL inhibitor solution (3.4 mg/mL diluted 100 times), five hours
T1 construct: the supernatant was used as a purified enzyme; from tissue; host or cells: rat intestine (acetone powder, supernatant of homogenate)
Method: as §1

[6] = biological target: T2, sucrase (sucrose as substrate) (Rattus norvegicus, UniProt P23739); experiment: Screening of enzyme inhibition, rat intestinal acetone powder crude enzyme, sucrose as substrate; assay type: biochemical; details: 10 μL inhibitor solution (3.4 mg/mL diluted 100 times), five hours
T2 construct: the supernatant was used as a purified enzyme; from tissue; host or cells: rat intestine (acetone powder, supernatant of homogenate)
Method: as §1

invertase = invertase (Saccharomyces cerevisiae, UniProt P00724); experiment: Invertase inhibition analysis by compound (I); assay type: biochemical
Method: For invertase inhibition analysis, 100 μg of sucrose as a substrate and 1 μg, 10 μg, or 100 μg of the compound (I) being the invertase inhibitor were added to 50 μL of 100 mmol/L acetate buffer solution, and pre-incubation was performed at 37° C. for five minutes. Thereafter, 50 μL of 0.2 U/mL invertase solution was added, and incubation was performed for 15 minutes. Thereafter, 10 μL of the reaction mixture was heated in a water bath to inactivate the enzyme and evaporated and dried, and the PMP derivatization was performed. A substance subjected to the enzyme reaction under the same conditions without adding the inhibitor was used as a blank. In each sample, the concentration required for the compound (I) to inhibit 50% of the enzyme was defined as IC50. An inhibition rate by the compound (I) was calculated using a following equation.
Inhibition rate (%)=[D1−(D2−D3)/1]×100 (Equation 1)
D1: Peak area of glucose in blank sample
D2: Peak area of glucose in each sample after enzyme reaction
D3: Peak area of glucose contained in inhibitor as an impurity
The IC50 value was calculated from a dose-response curve of the compound (I) used as the inhibitor.

invertase, sequence (P00724 20-532): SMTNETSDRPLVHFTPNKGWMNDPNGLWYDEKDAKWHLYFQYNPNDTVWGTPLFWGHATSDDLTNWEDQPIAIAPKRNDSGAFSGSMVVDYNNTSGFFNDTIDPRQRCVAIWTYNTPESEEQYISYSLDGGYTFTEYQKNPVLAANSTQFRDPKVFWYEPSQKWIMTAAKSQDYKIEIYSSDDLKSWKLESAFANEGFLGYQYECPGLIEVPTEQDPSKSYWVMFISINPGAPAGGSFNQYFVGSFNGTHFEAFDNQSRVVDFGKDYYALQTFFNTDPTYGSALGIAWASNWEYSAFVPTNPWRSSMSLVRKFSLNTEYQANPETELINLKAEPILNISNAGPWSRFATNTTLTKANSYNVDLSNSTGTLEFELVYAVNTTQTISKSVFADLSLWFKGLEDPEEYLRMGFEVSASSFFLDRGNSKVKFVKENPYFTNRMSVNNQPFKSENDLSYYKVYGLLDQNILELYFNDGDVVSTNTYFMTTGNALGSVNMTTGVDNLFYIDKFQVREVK
T1 sequence (P23739 1-1013 limits assumed): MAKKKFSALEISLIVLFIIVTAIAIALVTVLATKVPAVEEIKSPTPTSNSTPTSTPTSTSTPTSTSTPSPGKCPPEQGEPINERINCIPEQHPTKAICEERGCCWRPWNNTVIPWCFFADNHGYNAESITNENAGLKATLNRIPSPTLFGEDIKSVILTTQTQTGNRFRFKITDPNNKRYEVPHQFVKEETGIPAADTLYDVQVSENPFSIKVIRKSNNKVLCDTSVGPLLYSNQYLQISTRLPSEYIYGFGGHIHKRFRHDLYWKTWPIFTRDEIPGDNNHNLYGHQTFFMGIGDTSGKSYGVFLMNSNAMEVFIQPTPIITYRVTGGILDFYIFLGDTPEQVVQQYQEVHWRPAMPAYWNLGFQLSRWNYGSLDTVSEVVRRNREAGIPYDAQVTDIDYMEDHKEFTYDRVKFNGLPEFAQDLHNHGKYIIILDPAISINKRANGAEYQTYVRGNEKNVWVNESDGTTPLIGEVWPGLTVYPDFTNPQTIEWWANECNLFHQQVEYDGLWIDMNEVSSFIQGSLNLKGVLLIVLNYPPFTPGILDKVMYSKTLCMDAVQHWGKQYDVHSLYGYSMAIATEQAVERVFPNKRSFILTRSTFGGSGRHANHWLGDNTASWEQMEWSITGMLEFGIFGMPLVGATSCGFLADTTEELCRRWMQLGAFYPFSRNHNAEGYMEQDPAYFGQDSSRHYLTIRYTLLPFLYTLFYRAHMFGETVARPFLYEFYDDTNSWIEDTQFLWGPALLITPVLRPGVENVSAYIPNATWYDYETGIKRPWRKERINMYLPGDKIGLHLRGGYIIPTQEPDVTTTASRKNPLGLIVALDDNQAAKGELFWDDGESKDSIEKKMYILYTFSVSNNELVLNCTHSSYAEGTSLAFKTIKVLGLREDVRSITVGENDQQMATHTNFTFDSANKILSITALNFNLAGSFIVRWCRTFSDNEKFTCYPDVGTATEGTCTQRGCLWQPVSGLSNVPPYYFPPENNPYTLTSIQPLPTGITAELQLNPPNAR
T1 sequence (P23739 1014-1841 limits assumed): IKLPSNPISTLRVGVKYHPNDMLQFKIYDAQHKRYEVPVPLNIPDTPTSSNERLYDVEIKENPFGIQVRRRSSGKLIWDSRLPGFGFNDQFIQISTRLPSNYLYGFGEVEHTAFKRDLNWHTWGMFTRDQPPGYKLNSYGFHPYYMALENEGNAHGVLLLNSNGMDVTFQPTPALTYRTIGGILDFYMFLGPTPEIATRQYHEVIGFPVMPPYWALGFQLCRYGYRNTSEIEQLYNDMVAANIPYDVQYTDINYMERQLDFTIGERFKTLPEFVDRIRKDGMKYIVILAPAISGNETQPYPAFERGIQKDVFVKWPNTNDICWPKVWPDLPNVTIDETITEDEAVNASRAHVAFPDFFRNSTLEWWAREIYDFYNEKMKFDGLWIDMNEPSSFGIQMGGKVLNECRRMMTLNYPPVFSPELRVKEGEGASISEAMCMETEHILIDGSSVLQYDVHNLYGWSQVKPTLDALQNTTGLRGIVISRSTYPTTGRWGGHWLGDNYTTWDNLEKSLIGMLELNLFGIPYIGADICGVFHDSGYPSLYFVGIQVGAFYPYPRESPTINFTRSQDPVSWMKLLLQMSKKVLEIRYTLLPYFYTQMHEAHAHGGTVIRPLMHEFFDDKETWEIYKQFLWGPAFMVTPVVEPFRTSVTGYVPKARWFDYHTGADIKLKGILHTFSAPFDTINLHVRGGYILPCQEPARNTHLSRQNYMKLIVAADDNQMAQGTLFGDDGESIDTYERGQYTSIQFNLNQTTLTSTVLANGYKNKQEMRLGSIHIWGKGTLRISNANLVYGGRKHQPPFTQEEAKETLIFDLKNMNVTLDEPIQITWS
T2 sequence (P23739 1-1013 limits assumed): as the sequence (P23739 1-1013 limits assumed) above
T2 sequence (P23739 1014-1841 limits assumed): as the sequence (P23739 1014-1841 limits assumed) above

## OCC1OC(CO)(OCC2OC(O)C(O)C(O)C2O)C(O)C1O (centres unmarked) [compound (I), Maplebiose]
[1]
  Inhibition rate: 9.4%
[2]; 1 μg inhibitor
  Inhibition (%): 39.1%
[2]; 10 μg inhibitor
  Inhibition (%): 49.4%
[2]; 100 μg inhibitor
  Inhibition (%): 54.2%
[2]; calculated using a straight line from concentrations and inhibition rates
  IC50: 1720 µM
[3]
  changes with time of insulin: similar
  plasma glucose value vs rats not administered with the compound (I): significantly lower
[4]
  changes with time of insulin: similar
  plasma glucose value relative to rats not administered with the compound (I): about 50%
[5]
  Inhibition rate: 3.3%
[6]
  Inhibition rate: 12.3%
invertase; 1 μg inhibitor
  Peak response (Glc): 18.2
invertase; 10 μg inhibitor
  Peak response (Glc): 17.2
invertase; 100 μg inhibitor
  Peak response (Glc): 23.1
